Experimental data as given in patent publication US11377429B2, “Benzothia(di)azepine compounds and their use as bile acid modulators” (Albireo AB, priority 2020, dated 2022).

How the values were obtained:
Human IBAT = molecular target: T1, Human IBAT (Homo sapiens, UniProt Q12908); assay: IBAT (h/m) assay, human IBAT-overexpressing cells, 3H-taurocholic acid uptake; assay type: cell-based; conditions: read-out: hIBAT IC50
T1 construct: expressed in transfected cells; cultured under Puromycin selection
T1 sequence (Q12908 1-348): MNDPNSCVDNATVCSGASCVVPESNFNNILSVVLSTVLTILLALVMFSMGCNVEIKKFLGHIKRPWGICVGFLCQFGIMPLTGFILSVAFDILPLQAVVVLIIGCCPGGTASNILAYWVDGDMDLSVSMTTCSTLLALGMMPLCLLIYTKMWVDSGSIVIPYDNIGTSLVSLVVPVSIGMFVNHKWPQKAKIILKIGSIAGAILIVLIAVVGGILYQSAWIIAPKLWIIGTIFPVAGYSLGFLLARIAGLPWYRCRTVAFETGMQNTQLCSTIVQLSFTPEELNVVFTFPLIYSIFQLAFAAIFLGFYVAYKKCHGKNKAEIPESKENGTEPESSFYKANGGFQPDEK
Method: IBAT (h/m) Assay Protocol
10,000 cells (Human or Mouse IBAT-overexpressing cells) were seeded in 96-wells plate (Corning CLS3809) in 200 μL MEM-alpha medium (Gibco 12571-063) supplemented with 10% FBS (Gibco 10438026) containing Puromycin (Gibco A1113803) (10 μg/mL) and incubated at 37° C. in 5% CO2 for 48 hours. After incubation, media was decanted from the wells and cells were washed two times with 300 μL of basal MEM-alpha medium (FBS-free). After decanting basal MEM-alpha medium each time, plates were tapped against paper towel to ensure maximum removal of residual media. Test inhibitor dilutions (highest test concentration being 10 μM, 3-fold serial dilution, 10 points) prepared in DMSO (Sigma D2650) were added in incubation mix (maintaining 0.2% final DMSO concentration) containing 0.25 μM 3H-taurocholic acid (ARC ART-1368) and 5 μM of cold taurocholic acid (Sigma T4009). 50 μL of incubation mix containing test inhibitors was then added to the wells (in duplicate) and the plates were incubated for 20 minutes in a CO2 incubator at 37° C. After incubation, the reaction was stopped by keeping the plates on ice water mix for 2-3 minutes and then the incubation mix was aspirated completely from the wells. The wells were washed two times with 250 μL of chilled unlabeled 1 mM taurocholic acid dissolved in HEPES (Gibco 15630080)-buffered (10 mM) HBSS (Gibco 14175079) (pH 7.4). The plates were tapped against a paper towel after every wash to ensure maximum removal of blocking buffer. 100 μL of MicroScint-20 (PerkinElmer 6013621) was added to the wells and kept overnight at room temperature before reading the plates in TopCount NXT™ Microplate Scintillation and Luminescence Counter from PerkinElmer under 3H Test protocol (set at 120 seconds reading time per well).
Preparation of Test Compound Dilutions
All test compounds were provided in powder form at room temperature. 10 mM DMSO stocks of the test compounds were prepared, aliquoted and stored at −20° C. From the 10 mM DMSO stock of the compounds, a 3-fold serial dilution in DMSO was prepared to get a total of 10 dilutions of the test compounds. 0.5 μL of this dilution in DMSO was added to 250 μL of FBS-free basal media containing 3H-taurocholic acid and cold taurocholic acid to prepare the incubation mixture.

[1] = Bidirectional permeability assay (Caco-2 cells); assay type: in vitro ADME; conditions: human, pH 7.4, Caco-2, absorptive direction (A2B)
Method: Bidirectional Permeability Assay (Caco-2 Cells)
Caco-2 cells (Evotec) were seeded at a density of 70,000 cells/well in Millicell® 24-well cell culture insert plates and maintained in an incubator (37° C., 5% CO2, 95% RH) for 21 days with media change on alternate days.
Stock solutions (10 mM) of the test compounds, atenolol (low permeability marker), propranolol (high permeability marker) and digoxin (substrate for P-gp transport pathway) were prepared in dimethylsulfoxide (DMSO). An intermediate stock solution (1 mM) was prepared by diluting 10 μL of 10 mM master stock solution with 90 μL of neat DMSO. A working stock solution (10 μM) was prepared by diluting 50 μL of 1 mM with 4950 μL of FaSSIF buffer. […]
On the day of assay, Caco-2 monolayers were washed twice with transport buffer (HBSS, pH 7.4) and pre-incubated for 30 min (37° C., 5% CO2, 95% RH) in an incubator. The electrical resistance of the monolayers was measured with a Millicell®-ERS system. […]
Samples were vortexed and centrifuged at 4000 rpm for 10 minutes. […] The concentration of compounds in the samples was analyzed by liquid chromatography tandem mass spectrometry (LC-MS/MS) method using discovery grade bio-analytical method, as applicable.
The mean apparent permeability (Papp, ×10^−6 cm/sec) of the test compounds, atenolol, propranolol and digoxin were calculated as follows: […]

For `CCCCC1(C)CN(c2ccc(F)cc2)c2cc(SC)c(OCC(O)C(=O)O)cc2S(=O)(=O)C1` (single isomer, unassigned) [1, diastereomer 1], the IC50 (Human IBAT) was 1 nM and the Papp A→B at 120 min, 10 µM [1] was 2.2 ×10⁻⁶ cm/s.
